Test results reported in US7273949B2, “Salts and methods for their preparation” (Halliburton Energy Services, Inc., priority 2005, dated 2007).

What was measured:
skeletonema costatum = assay: Toxicity to algae, ISO 10253 (HOCNF); assay type: in vivo
Description: (§1) According to still other embodiments described herein, a disulfonate salt of 2,4-pentanedione is provided. According to one such embodiment, the salt comprises 2,4-pentanedione-1,5-sodium disulfonate. According to another such embodiment, a disulfonate salt of 2,4-pentanedione has an environmentally acceptable toxicity. As used herein, the term “environmentally acceptable toxicity” means that, when tested according to procedures that are the same as or equivalent to those set forth by the OSPAR Guidelines for Completing the Harmonised Offshore Chemical Notification Format (HOCNF) (References number: 2003-1) that were in effect on Dec. 31, 2004, the salt is determined to have a toxicity of greater than about 10,000 mg/L for an algae (skeletonema costatum), a crustacean (acartia tonsa), a fish (scopthalmus) and a sediment reworker (corophium volutator). […]
(§2) In this Example 3, the toxicity results for the skeletonema costatum were determined according to ISO (International Organization for Standardization) 10253, the protocol for which is known to those of ordinary skill in the art, and is also the protocol required under the above-referenced HOCNF Guidelines. The toxicity results for the acartia tonsa were determined according to ISO 14669, the protocol for which is known to those of ordinary skill in the art. […]

acartia tonsa = assay: Toxicity to crustacean, ISO 14669; assay type: in vivo
Description: as §1, §2

scopthalmus = assay: Toxicity to fish, Part B of the OSPAR Protocols; assay type: in vivo
Description: as §1, §2

corophium volutator = assay: Toxicity to sediment reworker, Part B of the OSPAR Protocols; assay type: in vivo
Description: as §1, §2

[1] = Solubility of the salt compared to the free acid (methanol rinse); assay type: physicochemical
Description: The neutralized product is then rinsed with a rinsing agent, for example, methanol, to remove other acid by-products, such as hydrochloric and sulfuric acids, and/or mono-sulfonic acids, and/or to remove other salts formed by the neutralization, such as salts of hydrochloric and sulfuric acids, and/or mono-sulfonic acids. It was discovered that […] solvents, such as methanol, would remove the by-product acids and/or salts, while leaving the salt of 2,4-pentanedione-1,5 disulfonic acid primarily undissolved.
The neutralized product was then rinsed several times with methanol to remove by-product acids, or any salts formed therefrom, while leaving the 2,4-pentanedione-1,5-sodium disulfonate primarily undissolved. […] The rinsed product was dried in a vacuum oven and filtered through a 300 mesh screen to afford a flowing pale orange/red powder. The resulting powder was 2,4-pentanedione-1,5-sodium disulfonate.

SMILES: O=C(CC(=O)CS(=O)(=O)[O-])CS(=O)(=O)[O-].[Na+].[Na+] [2,4-pentanedione-1,5-sodium disulfonate]
- toxicity (amount required to kill or incapacitate half the test population) (skeletonema costatum): greater than 10,000 mg/L
- toxicity (amount required to kill or incapacitate half the test population) (acartia tonsa): greater than 10,000 mg/L
- toxicity (amount required to kill or incapacitate half the test population) (scopthalmus): greater than 10,000 mg/L
- toxicity (amount required to kill or incapacitate half the test population) (corophium volutator): greater than 10,000 mg/L
- solubility compared to the 2,4-pentanedione-1,5-disulfonic free acid [1]: significantly less soluble
